Values joined by “and” are separate entries in the source; they are usually repeats but may differ in a detail not shown here. Equal values may be shown once.
What was measured:
[1] = system: ERK1/2 in HEK293 cells; experiment: ERK1/2 immunofluorescence (nuclear translocation) in HEK293 cells; format: cell-based; conditions: HEK293, siRNA 200 nM 24 h, then RB5 50 μM 15 min
Method: For Western blot and immunofluorescence analysis, 0.6 × 10^6 HEK293 cells were seeded in 6‐well plates in the presence of DMEM High Glucose GlutaMax (Thermo Fisher Scientific) containing 10% Foetal Bovine Serum (FBS, Thermo Fisher Scientific) and 100 U/ml penicillin/streptomycin (Thermo Fisher Scientific). For Western blot analysis to assess ERK1/2 and phospho‐ERK1/2 levels, cells were serum starved for 24 h and incubated with RB5 50 μM or FBS 20% for 15 min at 37°C. To assess JNK and phospho‐JNK levels, cells were incubated with RB5 50 μM or anisomycin 5 μM for 30 min at 37°C. For immunofluorescence analysis, cells were serum‐starved for 24 h and incubated with 50 μM RB5 or 20% FBS for 15 min at 37°C.
After rinsing in PBS, cells were fixed in 4% PFA and permeabilized with increasing concentrations of methanol (33, 50, 75, and 95% in PBS, 2 min each at room temperature), followed by 100% methanol for 10 min at −20°C. […] The mean fluorescence intensity in the nucleus was calculated automatically by Fiji‐ImageJ software in 8–10 fields per slide. […]

[2] = system: pERK1/2; experiment: pERK1/2 in dorsal striatum, MPTP model; format: in vivo, mouse
Method: Immunohistochemistry was performed as described in Papale et al ([2016]). Briefly, 1 h after blocking in 5% normal goat serum and 0.1% Triton X‐100 solution, free‐floating sections were incubated overnight at 4°C with one of the following primary antibodies: anti‐phospho‐p44/42 MAP kinase (Thr202/Tyr204) (1:200, Cell Signaling Technology #9101), anti‐phospho–Elk‐1 (Ser383) (1:100, Cell Signaling #9181), anti‐phospho‐Kv4.2 (Thr607)‐R (1:100, Santa Cruz sc22254‐R), anti‐phospho‐MSK‐1 (1:100 Cell Signaling Technology #9595), anti‐phospho‐MEK1/2 (Ser218/222) (1:100, sc‐7995 Santa Cruz Biotechnology), c‐Fos (1:100, sc‐52 Santa Cruz Biotechnology), tyrosine Hydroxylase (monoclonal 1:1,000, Sigma Aldrich, Italy) and anti‐DARPP‐32 (H3) (1:100, Santa Cruz Biotechnology, #sc‐271111) overnight at 4°C. […]
(§1) For in vivo immunohistochemistry experiments, images were acquired from the dorsal striatum using a Leica DM IRB microscope under a 20× objective. The number of p‐ERK, p‐MSK‐1, p‐ELK, p‐MEK‐1, p‐VG K+, c‐Fos, and DARPP‐32 positive cells was counted in 2–3 consecutive sections per mouse, bilaterally and averaged across the sections using the ImageJ software by a blind investigator to the condition. Estimation of nigral cell loss was assessed by quantifying the number of TH‐immunopositive neurons of the SNc in 360 μm‐spaced sections for each animal. […]

[3] = system: tyrosine hydroxylase (TH) positive cells of the SNc; experiment: TH-positive cells in SNc, MPTP model; format: in vivo, mouse
Method: Immunohistochemistry was performed as described in Papale et al ([2016]). […]
as §1
Immuno‐labeled sections were visualized under a Leica DM/RBE light microscope and an Olympus BX50 light microscope with Visiopharm Integrator System software (version 4.4.6.9). TH‐positive cells were counted at 200‐μm intervals. The total number of cells (C) for each animal was calculated using the following formula: C = ∑c × (∑A/∑a) × f, where c is the number of cells in each sampling frame, A is the inclusion area for each section, a is the area of the sampling frame for each animal, and f is the frequency of sectioning.

[4] = system: pERK in CA1; experiment: pERK in hippocampal CA1 of Tg2576 mice; format: in vivo, mouse; conditions: for pERK in hippocampal CA1 (Fig 5 panel j): individual animals
Method: (§2) Immunohistochemistry was performed as described in Papale et al ([2016]). Briefly, 1 h after blocking in 5% normal goat serum and 0.1% Triton X‐100 solution, free‐floating sections were incubated overnight at 4°C with one of the following primary antibodies: anti‐phospho‐p44/42 MAP kinase (Thr202/Tyr204) (1:200, Cell Signaling Technology #9101), anti‐phospho–Elk‐1 (Ser383) (1:100, Cell Signaling #9181), anti‐phospho‐Kv4.2 (Thr607)‐R (1:100, Santa Cruz sc22254‐R), anti‐phospho‐MSK‐1 (1:100 Cell Signaling Technology #9595), anti‐phospho‐MEK1/2 (Ser218/222) (1:100, sc‐7995 Santa Cruz Biotechnology), c‐Fos (1:100, sc‐52 Santa Cruz Biotechnology), tyrosine Hydroxylase (monoclonal 1:1,000, Sigma Aldrich, Italy) and anti‐DARPP‐32 (H3) (1:100, Santa Cruz Biotechnology, #sc‐271111) overnight at 4°C. Sections were then incubated with biotinylated goat anti‐rabbit IgG (1:200, Vector Laboratories) or biotinylated goat anti‐mouse (1:200, Vector Laboratories) for 2 h. The classic avidin‐peroxidase complex (ABC, Vector, UK) protocol was applied, using 3,3′‐diaminobenzidine (DAB, Sigma) as a chromogen.
(§3) Tg2576 mice were administered with RB5 or Scramble (20 mg/kg i.p.) for either 7 days, for IHC analysis, or with a single injection (20 mg/kg i.p.), for behavioral analysis.

[5] = system: p-ERK; experiment: Striatal p-ERK immunohistochemistry 1 h after single injection; format: in vivo, mouse; conditions: single injection 20 mg/kg i.p., individual mice
Method: as §2
For in vivo immunohistochemistry experiments, images were acquired from the dorsal striatum using a Leica DM IRB microscope under a 20× objective. The number of p‐ERK, p‐MSK‐1, p‐ELK, p‐MEK‐1, p‐VG K+, c‐Fos, and DARPP‐32 positive cells was counted in 2–3 consecutive sections per mouse, bilaterally and averaged across the sections using the ImageJ software by a blind investigator to the condition. Estimation of nigral cell loss was assessed by quantifying the number of TH‐immunopositive neurons of the SNc in 360 μm‐spaced sections for each animal.

[6] = system: cleaved caspase-3; experiment: Cleaved caspase-3 in SN, MPTP model; format: in vivo, mouse
From the text: In ex‐vivo and in‐vivo immunofluorescence experiments, the number of p‐S6 or p‐AcH3 immunoreactive neurons among NeuN‐positive neurons was counted in 2–3 consecutive striatal sections per mouse in four fields per section. Caspase 3‐positive cells were quantified among NeuN‐positive neurons in each slide and expressed as percentage (ratio between caspase‐3‐positive cells and total NeuN‐positive neurons) for each field acquired through the slide. The number of cells showing mutant Huntingtin inclusions were expressed as a percentage of mutant Huntingtin‐positive cells among DAPI‐positive cells.
1‐methyl‐4‐phenyl‐1,2,3,6‐tetrahydropyridine‐hydrochloride (MPTP‐HCl, Sigma, Italy) was dissolved in saline and administered i.p. once daily at a dose of 20 mg/kg for 4 days. RB5 (20 mg/kg i.p.) was injected daily 30 min before MPTP.

[7] = system: pERK in DG; experiment: pERK in dentate gyrus of Tg2576 mice; format: in vivo, mouse; conditions: for pERK in dentate gyrus (Fig 5 panel k): individual animals
Method: as §2, §3

[8] = MPTP 20 mg/kg i.p. and RB5 20 mg/kg i.p. for 4 days
[9] = Tg2576 mice, 7 months old, 20 mg/kg i.p. for 7 days

Sequence: GRKKRRQRRRPPQGGGGGEPRRTEGVGPGVPGEVEMVKGQPFDV [RB5, six D-amino acids, acetylated N-terminus]
- ERK1/2 nuclear translocation after KPNA2 downregulation [1]: did not further enhance ERK1/2 nuclear translocation
- pERK1/2 in dorsal striatum of MPTP-treated animals [2, 8]: further enhanced
- pERK1/2 in dorsal striatum (Fig 5 panel i) ([2]; MPTP model, individual animals): 320.238 and 468.254 and 523.81 and 295.238 and 784.921 and 378.571 and 564.683 and 633.333 and 362.302 and 348.413 and 268.452 and 448.016 and 342.46 and 421.429
- Tyrosine hydroxylase (TH) loss in SNc [3, 8]: prevented tyrosine hydroxylase (TH) loss
- TH-positive cells in SNc (Fig 5 panel g) ([3]; MPTP model, individual animals): 3818.38 and 2495.7 and 4195.82 and 2081.4 and 2629.68 and 4880.04 and 2139.82 and 2203.06 and 3349.83 and 3862.19 and 2316.4 and 3288.79 and 3386.28
- ERK phosphorylation in hippocampal CA1 [4, 9]: restored ERK phosphorylation
- pERK in hippocampal CA1 (Fig 5 panel j) ([4]; Tg2576 mice): 12.58 and 9.08 and 13.47 and 9.49 and 10.2 and 10.95 and 9.29 and 11.78
- pERK in hippocampal CA1 (Fig 5 panel j) ([4]; WT mice): 8.46 and 10.53 and 9.48 and 11.97 and 13.27 and 10.48 and 8.7
- p-ERK positive cells in striatum ([5]; ERK1+/+ (WT) mice): enhanced pERK and pAcH3 in WT
- p-ERK positive cells in striatum ([5]; ERK1-/- mice): not in ERK1 KO mice
- p-ERK positive cells in striatum ([5]; 1 h): greatly enhanced striatal ERK phosphorylation
- Apoptotic cell death (cleaved caspase-3-positive cells) [6, 8]: counteracted apoptotic cell death
- cleaved caspase-3 in SN (Fig 5 panel h) ([6]; MPTP model, individual animals): 15.9941 and 14.3542 and 22.1236 and 12.1639 and 12.097 and 11.2152 and 20.664 and 29.614 and 13.0618 and 19.582 and 19.4193 and 16.215 and 16.8899 and 24.4755
- ERK phosphorylation in dentate gyrus [7, 9]: restored ERK phosphorylation
- pERK in dentate gyrus (Fig 5 panel k) ([7]; Tg2576 mice): 11.21 and 6.88 and 9.13 and 7.17 and 10.84 and 11.62 and 10.66 and 8.7
- pERK in dentate gyrus (Fig 5 panel k) ([7]; WT mice): 8.18 and 9.67 and 8.87 and 7.48 and 10.41 and 9.92 and 13.01
